Results: paper PMC9940101, “Elucidation of the (R)-enantiospecific benzylisoquinoline alkaloid biosynthetic pathways in sacred lotus (Nelumbo nucifera)” (Scientific Reports, 2023)

What was measured:
[1] = biological target: T1, NnOMT1 (Nelumbo nucifera, UniProt A0A3G1RSF0); test: substrate conversion by LC-MS/MS; format: biochemical; settings: 100 µM substrate, 200 µM SAM, pH 7.5, 30 °C; 6-O-methylation
T1 construct: gene 6OMT

[2] = test system: NnOMT7; test: LC-MS/MS product quantification, Michaelis-Menten fit; format: biochemical, Nelumbo nucifera; settings: 400 µM SAM, 100 mM Tris-HCl pH 7.5, 30 °C, 5 min

T1 sequence (A0A3G1RSF0 entry or part of it): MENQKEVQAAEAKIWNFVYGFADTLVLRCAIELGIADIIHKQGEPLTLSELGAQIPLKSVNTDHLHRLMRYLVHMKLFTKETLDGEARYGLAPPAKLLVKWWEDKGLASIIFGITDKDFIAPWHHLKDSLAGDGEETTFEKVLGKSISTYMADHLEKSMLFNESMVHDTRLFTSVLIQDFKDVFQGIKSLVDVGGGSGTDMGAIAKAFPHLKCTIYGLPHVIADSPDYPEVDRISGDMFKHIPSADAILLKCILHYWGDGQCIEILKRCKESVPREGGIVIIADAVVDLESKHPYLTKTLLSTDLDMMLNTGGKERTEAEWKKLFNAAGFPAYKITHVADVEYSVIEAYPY

Row | Km ([2]; 7-O-methylation) [µM] | SMILES | substrate conversion by LC-MS/MS [1] | Km ([2]; 6-O-methylation) [µM]
1 |  | Oc1ccc(C[C@@H]2NCCc3cc(O)c(O)cc32)cc1 [(S)-norcoclaurine] | NnOMT1 activity with racemic norcoclaurine was higher compared with (S)-norcoclaurine | 
2 |  | Oc1ccc(CC2NCCc3cc(O)c(O)cc32)cc1 (racemic) [(R,S)-norcoclaurine] | NnOMT1 activity with racemic norcoclaurine was higher compared with (S)-norcoclaurine | 143 ± 30
3 | 48 ± 4 | COc1cc2c(cc1O)[C@H](Cc1ccc(O)cc1)N(C)CC2 [(S)-N-methylcoclaurine] |  | 
